Source: patent EP4427746A1, “TREATMENT OF DEMENTIA USING BORTEZOMIB OR PARBENDAZOLE” (Bash Biotech Inc, priority 2023, dated 2024)
Like-named read-outs stand apart in the source and are kept apart here.

Legend:
glutaminase-2 = test: Western blot for drug-induced glutaminase content; format: cell-based; details: U138MG cells, Figure 8
Procedure: (§1) A microplate reader was used to measure absorbances.
(§2) Drug-induced glutaminase content was measured by western. The cells were washed with PBS and lysed with CelLytic M (C2978, Sigma-Aldrich, Saint Louis, MO, USA) lysis buffer containing protease inhibitors. The lysates were centrifuged at 12,000 rotations per minute for 5 min, and the supernatant was collected. Proteins were separated by Mini-PROTEAN® TGXTM Precast Gels (BioRad, Berkeley, CA, USA) and transferred to a Trans-Blot Turbo Mini 0.2um PVDF Transfer Packs membrane (BioRad, Berkeley, CA, USA) by using Trans-Blot® TurboTM Transfer System (Bio-Rad, Berkeley, CA, USA). The antibodies for mitochondrial glutaminase-1 (kidney-type) and glutaminase-2 (liver-type) encoded from two GLS isomers and GAPDH were used for primary immunoblotting. All the antibodies were diluted at a 1:1000 concentration. DMSO was used as a blank reference. The membranes were incubated in primary antibody solution overnight at 4 °C with gentle rocking. The secondary antibody, goat Anti-Rabbit HRP (ab205718) or goat anti-mouse IgG-HRP (sc2005, Santa Cruz Biotechnology, Inc., Dallas, TX, USA), was blotted for 30 min at 4 °C with gentle rocking. The protein bands were detected with ImageQuant LAS 500 (29-0050-63)

[1] = system: glioblastoma cell line U138MG
Procedure: (§3) Before performing these assays, the optimum cell count per well was decided by comparing the optical density for L-glutamate (ab120049) absorbance between DMEM-0819 (with glutamine) and DMEM-5671 (without glutamine) culture media, which was tested by glutamate assay kit from Abcam (Abcam PLC, Cambridge, UK) at 450 nm following its protocol, then cultured 20000 cells per well in DMEM-0819 with L-alanyl-L glutamine, adherently, treated with drugs dissolved in DMSO separately. To prepare LDH assay high control samples, cell lysis solution was added instead of drugs. Samples were incubated in a humidified incubator (at 37 °C, 5% CO2). A microplate reader was used to measure absorbances.
(§4) Tetrazolium reduction assay (MTT assays) and lactate dehydrogenase release assays (LDH assays) were conducted to assess cell metabolic activity (cell proliferation) and to measure cytotoxicity (drug toxicity). Abcam protocols (MTT: ab211091, LDH: ab65293) were followed. Here, both protocols were summarized.
(§5) Before adding assay solutions on day 1 (24 hours) and day 2 (48 hours), the drug treatment media were aspirated from plates and transferred to well plates.
(§6) For the MTT assay, serum-free media and MTT Reagent were added to each well. Control samples were prepared without using cells but serum-free media and MTT reagent. […] The reduction of MTT by mitochondrial succinate dehydrogenase was measured by reading absorbance at OD = 590 nm (yellow to purple). Cytotoxicity (CT) was calculated as a ratio of measures of absorbance of control wells (AbsC) and absorbance of sample-containing wells (AbsS) as below: CT = 100∗((AbsC−AbsS))/(AbsC) [formula]
(§7) For the LDH release assay, LDH reaction mix was added to wells. […] The release of LDH from cells due to damaged plasma membrane was measured by reading absorbance at OD = 450 nm (blue). Cytotoxicity (CT) was calculated as a ratio of measures of absorbance of low control wells (AbsLC), high control wells (AbsHC) sample wells (AbsS) as below: CT = 100∗((AbsS−AbsLC))/((AbsHC−AbsLC)) [formula]

[2] = system: glioblastoma cell line U138MG; test: Glutamate contents assay; format: cell-based; details: U138MG cells after drug treatment, compared to cell viability, Figure 7
Text: as §1
Drug efficacy describes how the drug-protein interaction manipulates the normal action of the protein. Glutamate content was examined at differing drug concentrations with the glutamate assay kit to measure drug efficacies. Abcam protocol (ab83389) was followed to quantitate glutamate content. Here, the protocols were summarized.
To prepare samples, cells were harvested, washed with cold PBS, resuspended in an assay buffer, homogenised, incubated for 15 - 30 min on ice, and centrifuged for 2 - 5 minutes at 4°C at top speed using a cold microcentrifuge. The supernatant was collected and transferred to a clean tube, then distributed to well plates.
To quantitate free glutamate levels, the reaction mixture was added to each standard and sample well. The background reaction mix was added to the background sample wells. Wells were mixed and incubated at 37°C for 30 minutes protected from light. Colour change was measured at OD = 450 nm (blue). Glutamate concentration was calculated as formulated in the protocol, then divided by relative cytotoxicity by MTT assay to extrapolate drug efficacy.

glutaminase-1 = test: Western blot for drug-induced glutaminase content; format: cell-based; details: U138MG cells, Figure 8
Procedure: as §1, §2

[3] = system: glioblastoma cell line U138MG; test: Drug toxicity: MTT assay and LDH release assay; details: U138MG glial cells, MTT and LDH release assays, 24 and 48 hours, Figure 6
Procedure: as §3, §4, §5, §6, §7

Structure (SMILES)	drug affinity for glutaminase-2 (relative band intensities) (glutaminase-2)	drug toxicity (metabolic activity and cytotoxicity) [1]	glutamate levels [2]	drug affinity for glutaminase-1 (relative band intensities) (glutaminase-1)	drug toxicity (metabolic activity and cytotoxicity) [3]
CC(C)C[C@H](NC(=O)[C@H](Cc1ccccc1)NC(=O)c1cnccn1)B(O)O [bortezomib]	drastic	toxic for glial cells even at low concentrations	highly decreased	–	–
CC12CC3CC(C)(C1)CC(N)(C3)C2 [memantine]	significant and higher affinity	insignificant	highly decreased	significant drug affinity for glutaminase-1 could be measured for only comparably higher concentrations	–
CCCCc1ccc2[nH]c(NC(=O)OC)nc2c1 [parbendazole]	drastic	–	highly decreased	significant drug affinity for glutaminase-1 could be measured for only comparably higher concentrations	toxic for glial cells even at low concentrations
